Results taken from paper PMC11005681, “Growth‐Coupled Evolutionary Pressure Improving Epimerases for D‐Allulose Biosynthesis Using a Biosensor‐Assisted In Vivo Selection Platform” (Advanced Science, 2024).

How the values were obtained:
[1] = biological target: T1, ADAE (Agrobacterium sp. SUL3 D-allulose 3-epimerase) (Agrobacterium sp. SUL3, UniProt Z9QCC6USU8); assay: X-ray crystal structure of complex; format: binding; settings: active site with Mg2+; PDB id not printed in main text
T1 construct: homotetramer; each subunit an (alpha/beta)8 barrel with Mg2+ site
T1 sequence (Z9QCC6USU8 1-284): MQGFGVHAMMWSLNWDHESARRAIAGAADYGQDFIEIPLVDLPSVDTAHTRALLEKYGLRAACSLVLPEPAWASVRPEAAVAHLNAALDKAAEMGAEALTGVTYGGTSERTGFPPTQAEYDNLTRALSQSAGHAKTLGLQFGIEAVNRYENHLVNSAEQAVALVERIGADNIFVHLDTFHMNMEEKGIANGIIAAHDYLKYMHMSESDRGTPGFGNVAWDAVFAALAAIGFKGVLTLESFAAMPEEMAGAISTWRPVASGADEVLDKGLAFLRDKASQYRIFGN

[2] = biological target: Agrobacterium sp. SUL3 D-allulose 3-epimerase (Agrobacterium sp. SUL3); assay: crystal structure; X-ray crystal structures of ADAE alone and in complex with D-fructose or D-allulose; oligomer seen in the structure

Compound | X-ray crystal structure of complex [1] | stoichiometry N [2]
O=C(CO)[C@H](O)[C@H](O)[C@H](O)CO [D-allulose] | X-ray crystal structures of ADAE alone and in complex with different ligands, including D‐fructose and D‐allulose | –
OCC1(O)OC[C@@H](O)[C@@H](O)[C@@H]1O (stereo partly drawn) [D-fructose] | X-ray crystal structures of ADAE alone and in complex with different ligands, including D‐fructose and D‐allulose | –
Agrobacterium sp. SUL3 D-allulose 3-epimerase (enzyme) | – | 4
